Data published in PMC6412051 (Scientific Reports, 2019).

Key:
[1] = oral administration; cited from earlier work
[2] = Formation/stability constant by continuous variation (Job's) method; assay type: physicochemical; details: equimolar solutions in methanol, room temperature
Excerpt: In Fig. 1, the extrapolated value at the point of cross section on the Job’s curve corresponds to the total absorbance of the complex, if the complex formation had been completed. Since the complex is dissociative in nature, the actual absorbance is somewhat lower than the absorbance […].
The colour of the solution changed from brown to orange. Wavelength of maximum absorbance was noted against a blank, which appeared at 296 nm. All the measurements were made at 296 nm.

Compound	bioavailability [1]	formation constant of the complex (log K) [2]
CCN1CCCC1CNC(=O)c1cc(S(N)(=O)=O)ccc1OC (centres unmarked) [SPR, Sulpiride]	approximately 30%	
[Ru(p-cymene)Cl(SPR)]		5.45
